The record followed here is patent US5616615A, “Enaminone esters” (priority 1995, dated 1997).

Data set [1] has as its system Maximal electroshock seizures. Put plainly: MES maximal electroshock seizure test, mice ip. The format is in vivo. Particulars: for responders at 300 mg/kg / responders at 100 mg/kg / responders at 30 mg/kg: Mus musculus, ip; for responders at 300 mg/kg / responders at 30 mg/kg: read-out: MES, animals protected/tested; for responders at 100 mg/kg: read-out: MES, animals protected/tested (converted). As to the method: Three tests were performed:
1. MES--Electroshock Seizure Test
(§1) Maximal electroshock seizures are elicited with a 60-cycle alternating current of 50 mA intensity (5-7 times that necessary to elicit minimal electroshock seizures) delivered via corneal electrodes for 0.2 seconds. A drop of 0.9% saline is instilled in the eye prior to application of the electrodes in order to […].
In general terms: Protection in the maximal electroshock model is a classic sign of anticonvulsant action.

For data set [2], the system named is Subcutaneous Pentylenetetrazol seizure. Kind of data set: sc Met subcutaneous pentylenetetrazol (Metrazol) seizure test, mice. The data set is classed as in vivo. The following applies: for responders at 300 mg/kg / responders at 100 mg/kg / responders at 30 mg/kg: Mus musculus, sc; for responders at 300 mg/kg / responders at 100 mg/kg: read-out: scMet, animals protected/tested (converted); for scMet evaluation: Phase I; for responders at 30 mg/kg: read-out: scMet, animals protected/tested.

Another data set concerns seizures. Put plainly: Anticonvulsant evaluation (ASP phase I / overall). The data set is classed as in vivo, mice. Particulars: for minimal effective dose: Mus musculus, ip, Phase I, read-out: ASP Classification; for activity compared with 12: substituted benzylamines; for anticonvulsant activity / phase I evaluations: mouse, in vivo; for activity compared with benzylamine counterpart: 27 vs 16, 28 vs 17, 29 vs 20. The procedure: The first phase of the ADD Program involved performing tests on male Carworth Farms #1 mice. […] Three tests were performed:
as §1
The animal is observed for 30 minutes.

A further data set can be described thus: in vivo. The following applies: rat, po, 50 mg/kg. The source says: (§2) This oral screen is designated as phase VI.
The subject of data set [3] is Maximal electroshock seizures. Put plainly: Phase VI oral MES test, rats. The following applies: oral, 50 mg/kg; for responders at 50 mg/kg: Rattus norvegicus, read-out: MES, animals protected/tested (converted). The format is in vivo.
From the text: as §1, §2

Setting [4] is: 0.5 h, 300 mg/kg, 30 min, second trial.

Entries after “also recorded” stand apart in the source; their conditions may differ. Where two headings read alike, the source gives them in different places.

In the case of `COC(=O)C1C(=O)C=C(NCc2ccc(Cl)cc2)CC1C` (centres unmarked) [Compound 16], the responders at 300 mg/kg in data set [1] (0.5 h, 300 mg/kg, 30 min) is 100%; in data set [1] (4 h, 300 mg/kg, 4 h), 100%; in data set [2] (setting [4]), 0%; in data set [2] (0.5 h, 300 mg/kg, 30 min), 100%; in data set [2] (4 h, 300 mg/kg, 4 h) it was 0%. In addition, in data set [2], the “scMet evaluation” value is “spurious results”. Besides, the minimal effective dose with seizures was above 100 mg/kg. In the data set with seizures, the “activity compared with 12” value is given as “only a slight modification in activity”.
As to `COC(=O)C1C(=O)C=C(NCCc2ccccc2)CC1C` (centres unmarked) [Compound 109], the responders at 100 mg/kg in data set [1] (0.5 h, 100 mg/kg, 30 min) was 66.7%; in data set [1] (4 h, 100 mg/kg, 4 h) it was 0%; in data set [2] (0.5 h, 100 mg/kg, 30 min) it was 0%; in data set [2] (4 h, 100 mg/kg, 4 h), 0%. Further, the responders at 300 mg/kg in data set [1] (0.5 h, 300 mg/kg, 30 min) is 100%; in data set [1] (4 h, 300 mg/kg, 4 h), 0%; in data set [2] (0.5 h, 300 mg/kg, 30 min) it was 0%; in data set [2] (4 h, 300 mg/kg, 4 h), 0%. Also, the “Tox, animals toxic/tested” value in the data set “in vivo” is reported as 0/4. Besides, the responders at 50 mg/kg in data set [3] (0.5 h, 0.50 h) is 50%; in data set [3] (0.25 h), 100%; in data set [3] (1.00 h), 50%; in data set [3] (2.00 h) it was 25%; in data set [3] (4.00 h), 25%. Moreover, the minimal effective dose with seizures is below 100 mg/kg.
Regarding `COC(=O)C1C(=O)C=C(NCCc2ccccc2)CC1(C)C` (centres unmarked) [Compound 14], the responders at 100 mg/kg in data set [1] (0.5 h, 100 mg/kg, 30 min) is 33.3%; in data set [1] (4 h, 100 mg/kg, 4 h) it was 0%; in data set [2] (0.5 h, 100 mg/kg, 30 min) it was 0%; in data set [2] (4 h, 100 mg/kg, 4 h), 0%. The responders at 300 mg/kg in data set [1] (0.5 h, 300 mg/kg, 30 min) is 100%; in data set [1] (4 h, 300 mg/kg, 4 h), 0%; in data set [2] (0.5 h, 300 mg/kg, 30 min), 0%; in data set [2] (4 h, 300 mg/kg, 4 h) it was 0%. The minimal effective dose with seizures was below 100 mg/kg.
`COC(=O)C1C(=O)C=C(Nc2cc(OC)ccc2OC)CC1C` (centres unmarked) [Compound 31, methyl 4-(2', 5'-dimethoxy)-phenylamino-6-methyl-2-oxo-cyclohex-3-en-1-oate]: the responders at 100 mg/kg in data set [1] (0.5 h, 100 mg/kg, 30 min) was 33.3%; in data set [1] (4 h, 100 mg/kg, 4 h), 0%; in data set [2] (0.5 h, 100 mg/kg, 30 min), 0%; in data set [2] (4 h, 100 mg/kg, 4 h), 0%. Further, the responders at 300 mg/kg was 100% in data set [1] (0.5 h, 300 mg/kg, 30 min); 0% in data set [1] (4 h, 300 mg/kg, 4 h); 0% in data set [2] (0.5 h, 300 mg/kg, 30 min); 0% in data set [2] (4 h, 300 mg/kg, 4 h). The minimal effective dose in the data set with seizures is below 100 mg/kg. For the same molecule, in the data set with seizures, the “anticonvulsant activity” value is “anticonvulsant activity was observed”.
On to `COC(=O)C1C(=O)C=C(NCc2ccc(C(=O)O)cc2)CC1C` (centres unmarked) [Compound 18], for which, in the data set on seizures, the “anticonvulsant activity” value is “inactive” and the “activity compared with 12” value was “only a slight modification in activity”.
Turning to `COC(=O)C1C(=O)C=C(NN2CCOCC2)CC1C` (centres unmarked) [Compound 33], the “phase I evaluations” value in the data set on seizures is listed as “neither was active”.
Turning to `COC(=O)C1C(=O)C=C(NN2CCOCC2)CC1C` (centres unmarked) [Compound 34], the “phase I evaluations” value with seizures is reported as “neither was active”.
With `COC(=O)C1C(=O)C=C(Nc2ccc(C)cc2)CC1C` (centres unmarked) [Compound 28], the responders at 30 mg/kg in data set [1] (0.5 h, 30 min) was 0%; in data set [1] (4 h, 4 h), 0%; in data set [2] (0.5 h, 30 min, second trial) it was 0%; in data set [2] (0.5 h, 30 min), 100%; in data set [2] (4 h, 4 h), 0%. For the same molecule, the responders at 300 mg/kg in data set [1] (0.5 h, 300 mg/kg, 30 min) was 100%; in data set [1] (4 h, 300 mg/kg, 4 h) it was 0%; in data set [2] (0.5 h, 300 mg/kg, 30 min) it was 0%; in data set [2] (4 h, 300 mg/kg, 4 h), 0%. Also, the “scMet evaluation” value in data set [2] is given as “spurious results”. Moreover, in the data set on seizures, the “activity compared with benzylamine counterpart” value was “activity is enhanced in all cases”. Besides, the minimal effective dose in the data set on seizures was below 100 mg/kg. Also, the “anticonvulsant activity” value in the data set on seizures was “anticonvulsant activity was observed”.
For the molecule `CC1(C)CC(=O)C=C(NCc2ccccc2)C1` [Compound 19], the responders at 100 mg/kg in data set [1] (0.5 h, 100 mg/kg, 30 min) was 33.3%; in data set [1] (4 h, 100 mg/kg, 4 h), 0%; in data set [2] (0.5 h, 100 mg/kg, 30 min), 0%; in data set [2] (4 h, 100 mg/kg, 4 h), 0%. Further, the responders at 300 mg/kg was 100% in data set [1] (0.5 h, 300 mg/kg, 30 min); 100% in data set [1] (4 h, 300 mg/kg, 4 h); 0% in data set [2] (0.5 h, 300 mg/kg, 30 min); 0% in data set [2] (4 h, 300 mg/kg, 4 h). Further, the minimal effective dose with seizures is below 100 mg/kg. In addition, in the data set on seizures, the “anticonvulsant activity” value is on record as “potent anticonvulsants”.
For `O=C1C=C(NCc2ccccc2)CC(c2ccccc2)C1C(=O)NCc1ccccc1` (centres unmarked) [Compound 11], the “anticonvulsant activity” value with seizures is “inactive”.
As to `CCc1ccc(NC2=CC(=O)C(C(=O)OC)C(C)C2)cc1` (centres unmarked) [Compound 26], the responders at 100 mg/kg is 66.7% in data set [1] (0.5 h, 100 mg/kg, 30 min); 0% in data set [1] (4 h, 100 mg/kg, 4 h); 0% in data set [2] (0.5 h, 100 mg/kg, 30 min); 0% in data set [2] (4 h, 100 mg/kg, 4 h). In addition, in the data set on seizures, the minimal effective dose is below 100 mg/kg. Further, the “anticonvulsant activity” value in the data set on seizures was “anticonvulsant activity was observed”.
On to `COC(=O)C1C(=O)C=C(NCc2ccc(C)cc2)CC1C` (centres unmarked) [Compound 17], for which, in the data set on seizures, the “anticonvulsant activity” value is “inactive” and the “activity compared with 12” value is listed as “only a slight modification in activity”.
Turning to `O=C1C=C(NCc2ccccc2)CCC1` [Compound 153], the “MES, animals protected/tested” value in data set [1] (100 mg/kg, 30 min) was 3/3; in data set [1] (100 mg/kg, 4 h), 0/3; in data set [1] (300 mg/kg, 30 min), 1/1; in data set [1] (300 mg/kg, 4 h), 1/1; in data set [3] (0.25 h) it was 0/4; in data set [3] (0.50 h) it was 2/4. In addition, the “MES, animals protected/tested” value was 3/4 in data set [3] (1.00 h), 3/4 in data set [3] (2.00 h) and 1/4 in data set [3] (4.00 h). The “scMet, animals protected/tested” value is reported as 0/1 in data set [2] (100 mg/kg, 30 min); 0/1 in data set [2] (100 mg/kg, 4 h); 0/1 in data set [2] (300 mg/kg, 30 min); 0/1 in data set [2] (300 mg/kg, 4 h).
For the molecule `CC1(C)CC(=O)C=C(Nc2ccc(C(C)(C)C)cc2)C1` [Compound 143], the responders at 100 mg/kg in data set [1] (0.5 h, 100 mg/kg, 30 min) was 0%; in data set [1] (4 h, 100 mg/kg, 4 h), 0%; in data set [2] (0.5 h, 100 mg/kg, 30 min), 20%; in data set [2] (4 h, 100 mg/kg, 4 h), 0%. For the same molecule, the responders at 300 mg/kg in data set [1] (0.5 h, 300 mg/kg, 30 min) was 0%; in data set [1] (4 h, 300 mg/kg, 4 h), 0%; in data set [2] (0.5 h, 300 mg/kg, 30 min), 20%; in data set [2] (4 h, 300 mg/kg, 4 h), 0%. The minimal effective dose with seizures is below 100 mg/kg.
Regarding `COC(=O)C1C(=O)C=C(Nc2ccc([N+](=O)[O-])cc2)CC1C` (centres unmarked) [Compound 29], the responders at 100 mg/kg in data set [1] (0.5 h, 100 mg/kg, 30 min) is 0%; in data set [1] (4 h, 100 mg/kg, 4 h), 0%; in data set [2] (0.5 h, 100 mg/kg, 30 min, second trial), 0%; in data set [2] (0.5 h, 100 mg/kg, 30 min), 100%; in data set [2] (4 h, 100 mg/kg, 4 h) it was 0%. The “activity compared with benzylamine counterpart” value in the data set on seizures is recorded as “activity is enhanced in all cases”. Also, the minimal effective dose with seizures is below 100 mg/kg.
Turning to `COC(=O)C1C(=O)C=C(NNc2ccccc2)CC1C` (centres unmarked) [Compound 25], the responders at 300 mg/kg was 100% in data set [1] (0.5 h, 300 mg/kg, 30 min); 0% in data set [1] (4 h, 300 mg/kg, 4 h); 0% in data set [2] (setting [4]); 100% in data set [2] (0.5 h, 300 mg/kg, 30 min); 0% in data set [2] (4 h, 300 mg/kg, 4 h). In addition, the “scMet evaluation” value in data set [2] was “spurious results”. In the data set with seizures, the minimal effective dose is above 100 mg/kg.
As to `COC(=O)C1C(=O)C=C(Nc2ccc(C(=O)O)cc2)CC1C` (centres unmarked) [Compound 32], the “anticonvulsant activity” value in the data set on seizures was “comparable to inactive 18 in the benzylamine series”.
Same read-out and setting: the value for `COC(=O)C1C(=O)C=C(Nc2ccccc2)CC1C` (centres unmarked) [Compound 24] was “activity was lost; also recorded: inactive”.
`COC(=O)C1C(=O)C=C(NCc2ccc([N+](=O)[O-])cc2)CC1C` (centres unmarked) [Compound 20]: in the data set with seizures, the “activity compared with 12” value was “only a slight modification in activity”.
Regarding `COC(=O)C1C(=O)C=C(Nc2ccc(O)cc2)CC1C` (centres unmarked) [Compound 35], the “anticonvulsant activity” value with seizures is “inactive”.
Still for that read-out and setting: the value for `COC(=O)C1C(=O)C=C(Nc2cc(C)ccc2OC)CC1C` (centres unmarked) [Compound 30] was “anticonvulsant activity was observed”.
